In US20020010158A1, “Cardioprotective phosphonates and malonates” (priority 2000, published 2002):

Tests used:
Assay type in all cases: in vivo, rat
[1] = tested on: coronary artery ligated rats (cardiac hypertrophy); test: Cardiac hypertrophy after coronary artery ligation; conditions: rats 21 days after coronary ligation, 10 mg/kg daily by gastric tube
Description: (§1) Myocardial infarction was produced in male Sprague-Dawley rats (300-400 g) by occlusion of the left coronary artery. The rats were housed in clear cages in a temperature (19-22° C.) and humidity (50-55% RH) controlled room on a 12 hour light-dark cycle. Food and water were supplied ad libitum. Rats were anaesthized with 1-5% isoflurane in 100% O2 (2 L/minute flow rate). The skin was incised along the left sternal border and the 4th rib was cut proximal to the sternum and a retractor was inserted. The pericardial sac was opened and the heart externalized. The left anterior descending coronary artery was ligated approximately 2 mm from its origin on the aorta using a 6-0 silk suture. The heart was then repositioned in the chest and the incision closed via purse-string sutures. Sham-operated rats underwent identical treatment except that the artery was not ligated. Mortality due to surgery was less than 1%. All animals were allowed to recover, receiving food and water ad libitum for 21 days. Hemodynamic and histological assessments were made.
(§2) Rats were divided at random into five groups: sham operated, coronary artery ligated (untreated), coronary artery ligated (pyridoxal-5′-phosphate (P5P) treatment), coronary artery ligated (compound VII treated) and coronary artery ligated (compound XI treated). Treatment with P5P, compound VII and compound XI began 1 hour after coronary occlusion (or sham operation), and continued for 21 days. P5P, compound VII or compound XI (10 mg/kg) were administered daily (9 AM) by gastric tube. This dosage was chosen based on previous experience with P5P.
Hypertrophy is a physiological condition of enlargement (increased mass) due to increased stress. Cardiac hypertrophy is assessed by calculating the heart to body mass ratio.

[2] = tested on: coronary artery ligated rats (myocardial infarction); test: Coronary artery ligation, mortality; conditions: male Sprague-Dawley rats, 10 mg/kg daily by gastric tube from 1 hour after occlusion
Description: as §1, with “made. […]” for “made.”
as §2
Mortality in all groups occurred only within the first 24 h after coronary ligation. While in the untreated group 50% of the rats died, the mortality rate dropped to 17-25% in the treated groups (Table I).

[3] = tested on: coronary artery ligated rats (left ventricle hemodynamics); test: Hemodynamic changes after coronary artery ligation; conditions: rats 21 days after coronary ligation; 10 mg/kg daily by gastric tube; mean±SD
Description: as §1, with “Sham-operated rats underwent identical treatment except that the artery was not ligated. Mortality due to surgery was less than 1%. All animals were allowed to recover, receiving food and water ad libitum for 21 days. Hemodynamic and histological assessments were made.” left out
The animals prepared as described in Example 29 were anaesthetized with an injected cocktail of ketamine hydrochloirde (60 mg/kg) and xylazine (10 mg/kg). […] The catheter was secured with a silk ligature around the artery, and various hemodynamic parameters including left ventricular systolic pressure (LVSP), left ventricular end diastolic pressure (LVEDP), rate of contraction (+dP/dt), and rate of relaxation (−dP/dt), were recorded and calculated with Acknowledge 3.1 software (Biopac Systems Inc.). The animals were allowed 5-10 minutes to stabilize, after which parameters were measured as averages over three readings.

Cc1ncc(C(F)P(=O)(O)O)c(CO)c1O (stereo not drawn) [MC-5422, (3-hydroxy-4-hydroxymethyl-2-methyl-5-pyridyl)fluoromethyl phosphonic Acid]
Cardiac Hypertophy, Heart Weight/Body Weight [1]: 0.0032 ± 0.0002

Cc1ncc(C(O)P(=O)(O)O)c(CO)c1O (stereo not drawn) [MC-5723, (3-hydroxy-4-hydroxymethyl-2-methyl-5-pyridyl)hydroxymethyl phosphonic Acid]
Cardiac Hypertophy, Heart Weight/Body Weight [1]: 0.0031 ± 0.0004

Cc1ncc(COP(=O)(O)O)c(C=O)c1O [P5P, pyridoxal-5′-phosphate, reference compound]
Mortality (%) [2]: 17% | Total dead Rats [2]: 2 | Dead Rats 12 hr [2]: 1 | Dead Rats 24 hr [2]: 1 | Dead Rats 36 hr [2]: 0 | Dead Rats 48 hr [2]: 0 | Dead Rats 3 days [2]: 0 | LVSP (left ventricular systolic pressure) [3]: 120.0 ± 10.6

Cc1ncc(C(O)P(=O)(O)O)c(CO)c1O (stereo not drawn) [compound VII, (3-hydroxy-4-hydroxymethyl-2-methyl-5-pyridyl)hydroxymethyl phosphonic Acid]
Mortality (%) [2]: 21% | Total dead Rats [2]: 3 | Dead Rats 12 hr [2]: 2 | Dead Rats 24 hr [2]: 1 | Dead Rats 36 hr [2]: 0 | Dead Rats 48 hr [2]: 0 | Dead Rats 3 days [2]: 0 | Cardiac Hypertophy, Heart Weight/Body Weight [1]: significant decrease in cardiac hypertrophy

Cc1ncc(C(F)P(=O)(O)O)c(CO)c1O (stereo not drawn) [compound XI, (3-hydroxy-4-hydroxymethyl-2-methyl-5-pyridyl)fluoromethyl phosphonic Acid]
Mortality (%) [2]: 25% | Total dead Rats [2]: 3 | Dead Rats 12 hr [2]: 3 | Dead Rats 24 hr [2]: 0 | Dead Rats 36 hr [2]: 0 | Dead Rats 48 hr [2]: 0 | Dead Rats 3 days [2]: 0 | LVSP (left ventricular systolic pressure) [3]: 115.0 ± 12.1 | Cardiac Hypertophy, Heart Weight/Body Weight [1]: significant decrease in cardiac hypertrophy
